From article PMC9889419 (Pharmacological Reports, 2022)
Where a name gives a salt, the structure may show the parent alone.

Key:
[1] = tested on: CYP1A2 (aryl hydrocarbon receptor); test: In vitro metabolic gene induction studies; assay type: cell-based, human
Procedure: Anticonvulsant Screening prog ram
Test 28 - In Vitro Metabolic Gene Induction Studies
SolventCode: DMSO Solvent Prep: Unit: uM
Cell line source: Puracyp Molecular 257.7590
DateStarted: O5+eb-2O1O Date Completed: 15+eb-2010 Weig ht:
Reference: Lamb boolc#t! p9.77
lsoform Code: CyplAz Cell line: lAzDRE
Inducffon mechanism: aryl hydrocarbon receptor
Concentration Induction Cell
Fold +/- S.D Viability +/- S.D
0 1 +t- o.cs n 1n +L 2.2o n
Max induction 2 fold @ 200uM
. '^ (calculated): slgnificant decrease in viability at this concentation in vitso.
(1 picture or pasted object on this page, not shown here)

rats = details: ip, […]
Procedure: The assays were carried out within the Epilepsy Therapy Screening Program (ETSP, previously known as the Anticonvulsant Screening Program, ASP), Epilepsy Branch, National Institute of Neurological and Communicative Disorders and Stroke, National Institutes of Health in Rockville, MD, USA [23].

CYP3A4 = molecular target: T1, CYP3A4 (Homo sapiens, UniProt P08684); test: Human cytochrome P450 inhibition (human liver microsomes); assay type: in vitro ADME
T1 construct: The human liver microsomes used were selected from the bank of those commercially available; from tissue; host or cells: human liver microsomes
T1 sequence (P08684 whole entry): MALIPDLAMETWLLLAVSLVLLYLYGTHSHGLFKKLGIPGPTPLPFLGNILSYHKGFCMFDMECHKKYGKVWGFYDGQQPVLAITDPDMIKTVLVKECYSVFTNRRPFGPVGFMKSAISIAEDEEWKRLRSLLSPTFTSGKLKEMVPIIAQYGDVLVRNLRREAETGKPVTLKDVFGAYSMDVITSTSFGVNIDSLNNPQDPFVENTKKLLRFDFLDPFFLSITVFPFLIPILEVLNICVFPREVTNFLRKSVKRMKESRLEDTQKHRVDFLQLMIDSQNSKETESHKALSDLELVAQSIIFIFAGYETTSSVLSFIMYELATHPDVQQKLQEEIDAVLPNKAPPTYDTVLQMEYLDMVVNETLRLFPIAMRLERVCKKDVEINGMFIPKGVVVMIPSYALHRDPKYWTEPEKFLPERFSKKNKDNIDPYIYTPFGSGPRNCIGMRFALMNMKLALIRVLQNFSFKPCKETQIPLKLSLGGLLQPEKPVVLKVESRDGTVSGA
Procedure: (§1) The selective reactions utilized for each enzyme were as follows: CYP1A2—phenacetin deethylation, CYP2A6—coumarin 7-hydroxylation, CYP2B6—7-ethoxy-4-trifluoromethyl coumarin O-deethylation, CYP2C9—diclofenac 4-hydroxylation, CYP2C19—S-mephenytoin 4-hydroxylation, CYP2D6—bufuralol 1’-hydroxylation, CYP2E1—chlorzoxazone 6-hydroxylation, CYP3A4—testosterone 6β-hydroxylation. For inhibitory evaluation, human liver microsomes and the tested compound (added in methanol as a solvent) were incubated under aerobic conditions with cytochrome P450 isozyme-selective substrates and excess NADPH at 37 °C. Incubations were for time periods over which the reaction in the absence of the compound, were determined to be linear, and proportional to the protein concentration. The human liver microsomes used were selected from the bank of those commercially available to be especially rich in the amount of the cytochrome P450 isozyme under investigation. However, it is important to note that the microsomes contained all the other isozymes in addition, and if reaction/substrate was less than specific, the other isozymes may have contributed to a minor extent to the enzyme activity determined. Following incubation, the reaction was terminated, an internal standard added, the metabolic products extracted and separated by reverse phase HPLC. Each assay was performed in duplicate, and the mean value calculated. The HPLC elutions were monitored by UV absorbance for all CYP reactions except those for CYP2A6, CYP2B6 and CYP2D6 where fluorescence monitoring was employed. Quantification was by comparison with authentic metabolites.

CYP2A6 = molecular target: T2, CYP2A6 (Homo sapiens, UniProt P11509); test: as above; assay type: in vitro ADME
T2 construct: tissue celsis X008064-LSL; host or cells: human liver microsomes
T2 sequence (P11509 1-494): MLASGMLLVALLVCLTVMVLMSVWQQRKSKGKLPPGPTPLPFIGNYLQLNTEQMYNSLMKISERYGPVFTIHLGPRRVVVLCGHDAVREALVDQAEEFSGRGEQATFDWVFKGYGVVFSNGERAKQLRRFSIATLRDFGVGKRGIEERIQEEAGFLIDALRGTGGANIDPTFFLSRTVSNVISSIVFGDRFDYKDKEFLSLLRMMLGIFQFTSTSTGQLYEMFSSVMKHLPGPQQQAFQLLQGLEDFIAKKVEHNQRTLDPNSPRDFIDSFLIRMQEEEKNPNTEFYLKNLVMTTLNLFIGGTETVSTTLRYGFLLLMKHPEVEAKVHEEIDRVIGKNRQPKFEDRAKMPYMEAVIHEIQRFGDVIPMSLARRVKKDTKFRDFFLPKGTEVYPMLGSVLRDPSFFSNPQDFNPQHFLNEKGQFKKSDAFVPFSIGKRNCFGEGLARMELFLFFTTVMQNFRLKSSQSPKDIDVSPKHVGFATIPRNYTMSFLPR
Procedure: as §1

CYP1A2 = molecular target: T3, CYP1A2 (Homo sapiens, UniProt P05177); test: as above; assay type: in vitro ADME
T3 construct: tissue celsis F008085-CST; host or cells: human liver microsomes
T3 sequence (P05177 1-516): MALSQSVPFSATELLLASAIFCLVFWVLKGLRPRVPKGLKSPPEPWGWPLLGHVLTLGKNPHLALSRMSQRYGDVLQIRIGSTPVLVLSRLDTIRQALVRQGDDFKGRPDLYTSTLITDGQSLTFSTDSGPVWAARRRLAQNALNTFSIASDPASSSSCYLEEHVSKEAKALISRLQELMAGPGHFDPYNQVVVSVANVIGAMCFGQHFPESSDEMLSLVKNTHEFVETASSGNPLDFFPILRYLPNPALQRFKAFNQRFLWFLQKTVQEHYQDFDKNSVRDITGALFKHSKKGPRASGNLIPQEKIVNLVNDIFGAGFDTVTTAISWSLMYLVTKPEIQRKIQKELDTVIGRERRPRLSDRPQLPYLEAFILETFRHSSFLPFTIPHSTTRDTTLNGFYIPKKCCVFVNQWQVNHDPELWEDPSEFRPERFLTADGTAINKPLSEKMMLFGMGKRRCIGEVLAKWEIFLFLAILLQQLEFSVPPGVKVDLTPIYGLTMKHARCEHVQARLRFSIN
Procedure: as §1

CYP2E1 = molecular target: T4, CYP2E1 (Homo sapiens, UniProt P05181); test: as above; assay type: in vitro ADME
T4 construct: The human liver microsomes used were selected from the bank of those commercially available; from tissue; host or cells: human liver microsomes
T4 sequence (P05181 whole entry): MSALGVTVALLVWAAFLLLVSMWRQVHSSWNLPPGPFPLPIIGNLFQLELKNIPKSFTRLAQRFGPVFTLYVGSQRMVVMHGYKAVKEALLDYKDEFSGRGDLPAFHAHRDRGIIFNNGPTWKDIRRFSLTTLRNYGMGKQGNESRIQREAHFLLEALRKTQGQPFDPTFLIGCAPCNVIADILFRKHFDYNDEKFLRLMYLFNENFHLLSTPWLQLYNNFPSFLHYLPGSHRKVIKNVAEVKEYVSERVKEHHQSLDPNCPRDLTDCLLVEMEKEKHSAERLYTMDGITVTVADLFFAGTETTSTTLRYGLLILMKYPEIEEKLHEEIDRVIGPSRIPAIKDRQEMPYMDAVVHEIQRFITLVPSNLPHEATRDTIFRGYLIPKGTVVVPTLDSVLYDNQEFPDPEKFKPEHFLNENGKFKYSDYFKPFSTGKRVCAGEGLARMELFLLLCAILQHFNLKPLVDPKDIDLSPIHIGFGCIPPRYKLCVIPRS
Procedure: as §1

CYP2D6 = molecular target: T5, CYP2D6 (Homo sapiens, UniProt P10635); test: as above; assay type: in vitro ADME
T5 construct: from tissue; host or cells: human liver microsomes
T5 sequence (P10635 whole entry): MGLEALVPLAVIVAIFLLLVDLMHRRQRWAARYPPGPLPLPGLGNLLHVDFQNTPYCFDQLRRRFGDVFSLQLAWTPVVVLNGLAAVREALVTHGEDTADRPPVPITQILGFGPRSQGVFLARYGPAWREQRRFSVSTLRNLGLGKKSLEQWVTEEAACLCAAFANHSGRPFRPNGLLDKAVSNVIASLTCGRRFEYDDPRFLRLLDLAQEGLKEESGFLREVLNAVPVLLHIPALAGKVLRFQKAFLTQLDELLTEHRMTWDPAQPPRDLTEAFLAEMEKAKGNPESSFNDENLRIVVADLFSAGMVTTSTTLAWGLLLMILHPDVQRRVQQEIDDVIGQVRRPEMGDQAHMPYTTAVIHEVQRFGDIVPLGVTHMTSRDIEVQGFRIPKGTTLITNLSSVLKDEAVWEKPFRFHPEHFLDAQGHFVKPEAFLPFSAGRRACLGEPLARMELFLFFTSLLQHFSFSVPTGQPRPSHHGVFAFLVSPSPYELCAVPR
Procedure: as §1

CYP2B6 = molecular target: T6, CYP2B6 (Homo sapiens, UniProt P20813); test: as above; assay type: in vitro ADME
T6 construct: tissue celsis M008085JTA; host or cells: human liver microsomes
T6 sequence (P20813 whole entry): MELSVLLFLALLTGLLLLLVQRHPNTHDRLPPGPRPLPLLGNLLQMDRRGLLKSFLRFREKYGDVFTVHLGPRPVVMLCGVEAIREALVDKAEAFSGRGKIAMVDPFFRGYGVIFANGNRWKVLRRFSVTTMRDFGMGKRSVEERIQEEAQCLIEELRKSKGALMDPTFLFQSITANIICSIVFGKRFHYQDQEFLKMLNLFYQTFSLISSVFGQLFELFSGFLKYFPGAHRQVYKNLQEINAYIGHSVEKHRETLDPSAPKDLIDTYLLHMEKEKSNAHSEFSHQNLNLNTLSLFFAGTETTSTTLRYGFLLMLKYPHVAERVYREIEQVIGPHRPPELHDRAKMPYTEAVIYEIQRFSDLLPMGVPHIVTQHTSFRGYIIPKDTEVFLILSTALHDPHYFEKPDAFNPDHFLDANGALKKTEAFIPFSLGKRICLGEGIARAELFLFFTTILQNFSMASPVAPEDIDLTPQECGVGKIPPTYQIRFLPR
Procedure: as §1

CYP2C9 = molecular target: T7, CYP2C9 (Homo sapiens, UniProt P11712); test: as above; assay type: in vitro ADME
T7 construct: from tissue; host or cells: human liver microsomes
T7 sequence (P11712 whole entry): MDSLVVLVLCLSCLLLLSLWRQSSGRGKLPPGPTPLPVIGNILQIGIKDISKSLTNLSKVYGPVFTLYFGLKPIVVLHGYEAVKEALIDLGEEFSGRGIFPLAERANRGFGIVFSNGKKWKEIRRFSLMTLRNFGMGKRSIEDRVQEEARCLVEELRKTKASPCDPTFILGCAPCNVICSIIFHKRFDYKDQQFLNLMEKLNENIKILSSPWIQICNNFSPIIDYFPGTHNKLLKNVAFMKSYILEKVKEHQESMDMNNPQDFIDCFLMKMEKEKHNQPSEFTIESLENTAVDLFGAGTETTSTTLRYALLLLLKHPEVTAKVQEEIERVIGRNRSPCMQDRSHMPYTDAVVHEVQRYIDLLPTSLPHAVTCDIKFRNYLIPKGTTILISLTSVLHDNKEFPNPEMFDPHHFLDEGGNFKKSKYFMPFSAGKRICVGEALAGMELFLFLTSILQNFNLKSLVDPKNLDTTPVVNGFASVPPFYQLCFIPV
Procedure: as §1

CYP2C19 = molecular target: T8, CYP2C19 (Homo sapiens, UniProt P33261); test: as above; assay type: in vitro ADME
T8 construct: tissue Puracyp #011; host or cells: human liver microsomes
T8 sequence (P33261 whole entry): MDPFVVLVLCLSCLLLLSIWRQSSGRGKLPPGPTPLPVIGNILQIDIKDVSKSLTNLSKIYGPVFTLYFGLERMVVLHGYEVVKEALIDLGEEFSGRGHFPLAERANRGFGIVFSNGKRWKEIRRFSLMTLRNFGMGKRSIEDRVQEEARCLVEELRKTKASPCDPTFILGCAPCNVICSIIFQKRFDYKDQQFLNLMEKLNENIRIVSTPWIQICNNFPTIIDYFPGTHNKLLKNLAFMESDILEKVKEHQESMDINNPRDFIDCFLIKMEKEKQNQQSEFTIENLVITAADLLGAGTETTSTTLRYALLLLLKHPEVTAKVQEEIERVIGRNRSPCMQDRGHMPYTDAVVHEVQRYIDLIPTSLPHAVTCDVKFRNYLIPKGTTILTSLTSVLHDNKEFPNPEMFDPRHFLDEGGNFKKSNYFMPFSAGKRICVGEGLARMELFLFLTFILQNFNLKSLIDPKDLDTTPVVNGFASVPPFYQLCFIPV
Procedure: as §1

STZ-treated mice = test: Streptozotocin-induced diabetic neuropathy, von Frey test; assay type: in vivo; details: for elevation of pain threshold (von Frey): STZ-treated mice
Procedure: Induction of diabetes. To induce diabetes the mice were injected with a single ip streptozotocin (STZ, Sigma-Aldrich, Germany) dose (200 mg/kg) dissolved in 0.1 N citrate buffer. Blood glucose levels were measured 1 h before and repeatedly 1, 2 and 3 weeks after STZ injection using a blood glucose monitoring system (AccuChek Active, Roche, France). Blood samples (5 µL) for the measurement of glucose concentration were obtained from the mouse tail vein. The animals were defined as diabetic when their blood glucose concentration exceeded 300 mg/dL and only those mice were used as diabetic mice in further tests. The body weight of mice was monitored 1 h before and 21 days after STZ injection.
Assessment of tactile allodynia in STZ-treated mice—von Frey test. Mechanical hyperalgesia was tested as previously described in detail [25] using the electronic von Frey device (Bioseb, France). Briefly, in a quiet room, mice were placed in test compartments on an elevated metal mesh grid and allowed to acclimate for 30 min. After a habituation period each mouse was tested 3 times in the plantar region of hind paw, to obtain baseline values. Subsequently, the mice were pre-treated with the tested compound dissolved in saline at doses 1, 10 and 30 mg/kg. Thirty minutes later the animals were tested again and mean values of mechanical withdrawal threshold were obtained for each mouse.

Compound: CCC(CO)NCCOc1c(C)cccc1Cl (centres unmarked) [Compound 4, R,S-2-((2-(2-chloro-6-methylphenoxy)ethyl)amino)butan-1-ol]
- EC50 ([1]; 1A2DRE cell line, read-out: EC50 (calculated)): 37 µM
- Max induction (calculated) ([1]; @ 200uM): 2 fold
- LTG-resistant amygdala seizures: active at (rats): 15 mg/kg
- Inhibition type (CYP3A4): Weak inhibition
- % inhibition of 500 µM concentration (CYP3A4; 500 µM, substrate at 200.0 µM): 52 (substrate at 200.0 µM) %
- Inhibition type (CYP2A6): Mixed/competitive
- Ki (CYP2A6): 371 µM
- % inhibition of 500 µM concentration (CYP2A6; 500 µM, substrate at 10 µM): 44 (substrate at 10 µM) %
- Inhibition type (CYP1A2): Mixed/competitive
- Ki (CYP1A2): 23 µM
- % inhibition of 500 µM concentration (CYP1A2; 500 µM, substrate at 2 µM): 65 (substrate at 2 µM) %
- Inhibition type (CYP2E1): Slight inhibition
- % inhibition of 500 µM concentration (CYP2E1; 500 µM, substrate at 500.0 µM): 17 (substrate at 500.0 µM) %
- Inhibition type (CYP2D6): Mixed/competitive
- Ki (CYP2D6): 1400 nM
- % inhibition of 500 µM concentration (CYP2D6; 500 µM, substrate at 100.0 µM): 100 (substrate at 100.0 µM) %
- Inhibition type (CYP2B6): Weak inhibition
- % inhibition of 500 µM concentration (CYP2B6; 500 µM, substrate at 25 µM): 69 (substrate at 25 µM) %
- Inhibition type (CYP2C9): Slight inhibition
- % inhibition of 500 µM concentration (CYP2C9; 500 µM, substrate at 400 µM): 19 (substrate at 400 µM) %
- Inhibition type (CYP2C19): Mixed/competitive
- Ki (CYP2C19): 54 µM
- % inhibition of 500 µM concentration (CYP2C19; 500 µM, substrate at […]): 80 (substrate at 150.0 µM) %

Compound: CCC(CO)NCCOc1c(C)cccc1Cl (centres unmarked) [KM-408, R,S-2-((2-(2-chloro-6-methylphenoxy)ethyl)amino)butan-1-ol hydrochloride]
- elevation of pain threshold (von Frey) (STZ-treated mice; 1 mg/kg): 132%
- elevation of pain threshold (von Frey) (STZ-treated mice; 10 mg/kg): 125%
- STZ-induced pain (von Frey): active at (STZ-treated mice; mice, ip): 1 mg/kg
